The values that follow come from patent US10059655B2, “Lipids and lipid compositions for the delivery of active agents” (priority 2013, dated 2018).

In data set [1] the test system is RSV F protein. Briefly: RSV immunogenicity: F-specific IgG titers after IM vaccination with liposome-formulated self-replicating RNA. The format is in vivo. To be noted: IM days 0 and 21, BALB/c mice, two weeks after two immunizations.
The subject of data set [2] is hLeptin. Briefly: Human leptin in mouse plasma (ELISA) after subcutaneous injection of encapsulated leptin mRNA. The class given is in vivo. To be noted: C57 mice. As to the method:
(§1) Human leptin in mouse plasma was measured by ELISA. Antibodies purchased from the R&D Systems duoset (Cat# DY398E, part#840279 for capture antibody and part#840280 for detection antibody) were reconstituted using PBS and titered, again using PBS. The capture antibody was coated at 4 ug/ml in 30 ul/well on a white Nunc® Maxisorp 384 well plate (Cat#460372). After an overnight incubation at room temperature the capture antibody was aspirated and the plate blocked for 2 hours at room temperature with 90 ul/well of KPL milk blocker (Cat#50-82-00). Once the incubation was completed the plate was aspirated and recombinant standards and samples were added to the plate at 30 ul/well for 2 hours at 37° C. while shaking at 600 rpm. Sample/standard dilutions were made using casein sample diluent. Washing/aspiration 3 times with 100 ul/well followed, using Teknova plate wash solution (Cat# P1192). […] The plate was quickly read using a SpectramaxM5 plate reader with a 50 ms integration time. […]
Prior to subcutaneous injection, mouse body weights were recorded and diet weighted, with mice grouped according to their body weights. […]
On day 0, animals were weighed and sorted according to average body weight. ice were dosed at 9 AM and blood was taken at 9 AM on day 0. Blood was also taken at 9 AM on each of days 1 and 2 and assessed for leptin protein levels. Body weight and food intake were also recorded.
Background: In an ELISA, binding on a coated surface is turned into a signal by an enzyme label.

In data set [3] the test system is hLeptin. Briefly: Human leptin in mouse plasma (ELISA) after IV tail vein injection of encapsulated leptin mRNA. The following applies: 0.4 mpk, C57 mice, @ 24 h. The format is in vivo. As to the method: as §1
Before the tail vein injection, mouse body weights were recorded and diet weighted, with mice grouped according to their body weights. […]
On day 0, animals were weighed and sorted according to average body weight. Mice were dosed, and food intake (FI) was recorded, on each of days 1-7 and days 9, 11, and 16.

Data set [4] can be described thus: Measurement of siRNA encapsulation (SYBR Gold fluorescence). The following applies: for % Encap.: FVII siRNA; for % encapsulation siRNA FVII: FVII siRNA in LNP. The class given is physicochemical. The procedure: The lipid nanoparticles (LNPs) were formed by mixing equal volumes of lipids dissolved in alcohol with siRNA dissolved in a citrate buffer by an impinging jet process. The lipid solution contains a cationic lipid compound of the invention, a helper lipid (cholesterol), an optional neutral lipid (DSPC) and a stealth lipid (S010, S024, S027, or S031) at a concentration of 8-16 mg/mL with a target of 12 mg/mL in an alcohol. The siRNA to total lipid ratio is approximately 0.05 (wt/wt). Where a LNP formulation contains four lipid components, the molar ratios of the lipids ranges from 20 to 70 mole percent for the cationic lipid with a target of 40-60, the mole percent of helper lipid ranges from 20 to 70 with a target of 30 to 50, the mole percent of neutral lipid ranges from 0-30, the mole percent of PEG lipid has a range from 1 to 6 with a target of 2 to 5. The concentration of siRNA solution ranges from 0.7 to 1.0 mg/mL with a target of 0.8 to 0.9 mg/mL in a sodium citrate: sodium chloride buffer pH 4-6, with a target of 4.5-5.5. The LNPs are formed by mixing equal volumes of lipid solution in ethanol with siRNA dissolved in a citrate buffer by an impinging jet process through a mixing device with ID ranging from 0.25 to 2.0 mm at a flow rate from 10 to 640 mL/min. The mixed LNP solution is held at room temperature for 0-24 hrs prior to a dilution step. The solution is then concentrated and diafiltered with suitable buffer by ultrafiltration process using membranes with a MW cutoff from 30 to 500 KD. The final product is sterile filtered and stored at 4° C.
SYBR Gold flourescence reagent is used for the determination of siRNA encapsulation in the DLP's. DLP's with and without triton x-100 are used to determine the free siRNA and total siRNA amounts. DLP's samples with and without triton X-100 were excited at 485 nm and flourescence emission is measured at 530 nm. Encapsulation efficiency is calculated based on the following formula: Encapsulation efficiency: [(free siRNA concentration−total siRNA concentration)/(total siRNA concentration)]×100% Encapsulation Data

As to `CCCCC/C=C\C/C=C\CCCCCCCC(=O)OCC(COC(=O)CCCCCCC/C=C\C/C=C\CCCCC)COC(=O)C1(C)CCN(C)C1` (stereo not drawn) [Example 1, (9Z,9′Z,12Z,12′Z)-2-(((1,3-dimethylpyrrolidine-3-carbonyl)oxy)methyl)propane-1,3-diyl bis(octadeca-9,12-dienoate)], the “Immunogenicity (2wp2; log10 IgG titers)” value in data set [1] (0.1 ng replicon RNA) amounted to 3.99 log10 IgG titers; in data set [1] (1 ng replicon RNA), 4.08 log10 IgG titers. Further, the “Expression of protein following SC injection of encapsulated mRNA: hLeptin” value in data set [2] (0.4 mpk) was 2.5 ng/mL. Also, in data set [3], the “Expression of protein following IV injection of encapsulated mRNA: hLeptin” value was 12.3 ng/mL. Also, in data set [4], the “% Encap.” value turned out to be 85.1%. In data set [4], the “% encapsulation siRNA FVII” value was determined as 85.1%.

`CCCCC/C=C\C/C=C\CCCCCCCC(=O)OCC(COC(=O)CCC(OCCCCCCCC)OCCCCCCCC)COC(=O)OCCCN(CC)CC` (stereo not drawn) [Example 13, (9Z,12Z)-3-((4,4-bis(octyloxy)butanoyl)oxy)-2-((((3-(diethylamino)propoxy)carbonyl)oxy)methyl)propyl octadeca-9,12-dienoate]: in data set [3], the “Expression of protein following IV injection of encapsulated mRNA: hLeptin” value worked out at 3.8 ng/mL. For the same compound, in data set [4], the “% Encap.” value stood at 88.1% and the “% encapsulation siRNA FVII” value worked out at 88.1%.

For the compound `CCCCC/C=C\C/C=C\CCCCCCCC(=O)OCC(COC(=O)CCC(OCCCCCCCC)OCCCCCCCC)COC(=O)OCC1CCCN(CC)C1` (stereo not drawn) [Example 15, (9Z,12Z)-3-((4,4-bis(octyloxy)butanoyl)oxy)-2-(((((1-ethylpiperidin-3-yl)methoxy)carbonyl)oxy)methyl)propyl octadeca-9,12-dienoate], the entries for the “Immunogenicity (2wp2; log10 IgG titers)” value in data set [1] (0.1 ng replicon RNA) and in data set [1] (1 ng replicon RNA) were 4.45 log10 IgG titers and 4.63 log10 IgG titers, respectively. Further, the “Expression of protein following SC injection of encapsulated mRNA: hLeptin” value in data set [2] (0.6 mpk) amounted to 6.2 ng/mL.
